Experimental data: patent publication US9796733B2, “Imidazo-pyrazine derivatives useful as soluble guanylate cyclase activators” (Merck Sharp & Dohme Corp., priority 2014, dated 2017)

Biological target: T1, sGC α1/β1 heterodimer (Homo sapiens, UniProt Q02108+Q02153)
T1 construct: expressed in transfected cells; host or cells: CHO-K1 (clone #7, CHO-K1/sGC)
T1 sequence (Q02108 1-690): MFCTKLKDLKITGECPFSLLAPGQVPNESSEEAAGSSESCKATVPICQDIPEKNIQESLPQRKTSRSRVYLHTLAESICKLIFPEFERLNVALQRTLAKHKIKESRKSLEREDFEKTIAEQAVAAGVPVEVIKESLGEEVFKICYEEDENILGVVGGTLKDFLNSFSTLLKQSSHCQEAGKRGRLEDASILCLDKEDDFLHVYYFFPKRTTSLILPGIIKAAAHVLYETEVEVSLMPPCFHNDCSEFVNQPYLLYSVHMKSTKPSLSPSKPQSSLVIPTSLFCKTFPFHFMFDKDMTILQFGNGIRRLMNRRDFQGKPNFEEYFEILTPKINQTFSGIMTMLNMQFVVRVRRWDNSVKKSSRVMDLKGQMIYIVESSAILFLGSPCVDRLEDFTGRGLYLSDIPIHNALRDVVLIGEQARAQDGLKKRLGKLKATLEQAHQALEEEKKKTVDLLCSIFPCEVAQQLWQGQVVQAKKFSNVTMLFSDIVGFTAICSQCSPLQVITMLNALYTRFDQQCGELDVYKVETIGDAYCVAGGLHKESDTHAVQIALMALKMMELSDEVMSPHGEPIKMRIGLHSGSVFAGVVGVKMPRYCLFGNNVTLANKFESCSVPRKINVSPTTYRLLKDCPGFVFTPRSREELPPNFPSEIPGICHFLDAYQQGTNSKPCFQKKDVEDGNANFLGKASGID
T1 sequence (Q02153 1-619): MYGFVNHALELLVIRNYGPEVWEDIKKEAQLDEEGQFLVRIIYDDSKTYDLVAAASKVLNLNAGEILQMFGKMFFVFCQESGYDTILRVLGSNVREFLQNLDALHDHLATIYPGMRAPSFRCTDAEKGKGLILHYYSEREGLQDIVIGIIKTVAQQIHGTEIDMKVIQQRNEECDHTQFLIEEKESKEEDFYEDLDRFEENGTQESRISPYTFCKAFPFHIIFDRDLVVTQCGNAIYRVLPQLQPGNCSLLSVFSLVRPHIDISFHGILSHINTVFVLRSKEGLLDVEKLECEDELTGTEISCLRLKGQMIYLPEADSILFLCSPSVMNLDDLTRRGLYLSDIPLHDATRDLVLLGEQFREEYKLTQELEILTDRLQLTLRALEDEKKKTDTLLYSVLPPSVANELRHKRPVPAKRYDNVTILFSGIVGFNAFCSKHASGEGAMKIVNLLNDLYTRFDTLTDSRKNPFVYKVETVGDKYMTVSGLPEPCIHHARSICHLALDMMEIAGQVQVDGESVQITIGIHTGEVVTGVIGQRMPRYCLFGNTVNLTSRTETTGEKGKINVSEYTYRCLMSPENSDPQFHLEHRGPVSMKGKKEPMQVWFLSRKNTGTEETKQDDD
Experiment: Cell-based sGC functional assay (CASA assay): cGMP generation in CHO-K1/sGC cells, HTRF detection
Conditions: for Emax: CHO-K1, percent activation relative to standard Compound A in CHO-K1/sGC cells, read-out: % Act.; for EC50: inflection point (IP) of cGMP generation in CHO-K1/sGC cells, 4P fit, activity expressed as percentage of Compound A; for % Act.: percent activation relative to standard Compound A in CHO-K1/sGC cells
Excerpt: Biological Assay 1: Cell-Based sGC Functional Assay (CASA Assay)
sGC is a heme-containing enzyme that converts GTP to secondary messenger cGMP. Increases in cGMP levels affect several physiological processes including vasorelaxation through multiple downstream pathways. […] Heme-dependent activators (HDAs) preferentially activate sGC containing a ferrous heme group. To determine the effect of sGC activators on enzyme activity, the CASA assay was developed to monitor the generation of cGMP in a cell line that stably expresses the heterodimeric sGC protein.
A CHO-K1 cell line stably expressing the sGC α1/β1 heterodimer was generated using a standard transfection protocol. CHO-K1 cells were transfected with plasmids pIREShyghsGCal and pIRESneo-hsGCβ1 simultaneously using FUGENE reagent. Clones that stably express both subunits were selected with hygromycin and neomycin for 2 weeks. Clone #7 was chosen for the assay and was designated CHO-K1/sGC. CHO-K1/sGC cells were maintained in F-K12 medium containing 10% heat-inactivated Fetal Bovine Serum (FBS), 100 μg/mL penicillin/streptomycin, 0.5 mg/mL hygromycin and 0.25 mg/mL G418. The cells were then cryopreserved in LN2. On the day of the assay, cells thawed and resuspended in EBSS Assay Buffer (Sigma, E3024) supplemented with 5 mM MgCl2, 10 mM HEPES (4-(2-hydroxyethyl)piperazine-1-ethanesulfonic acid) and 0.05% BSA (bovine serum albumin) (EAB) and cell density was then adjusted to 4×10^5/mL with EAR IBMX (3-isobutyl-1-methylxanthin, 0.5 mM) was added to inhibit degradation of cGMP. Compounds were diluted from DMSO stock solutions and added to the assay at a final DMSO concentration of 2.5%. Cells were incubated with compounds in the presence and absence of 1 μM of Diethylenetriamine/nitric oxide adduct (DETA-NO; Sigma, 17018) for 1 hr at 37° C. At the end of the incubation period, the reaction was terminated and the cells were lysed with the detection reagents from Cisbio Kits. The level of intracellular cGMP was determined using an HTRF-based assay kit (CisBio, 62GM2PEC), which detects the displacement of a fluorescence labeled cGMP from its specific antibody. The cGMP produced by test compounds was directly compared to the maximum cGMP production (this value was set to equal 100% activation.) of the published sGC-HDA Compound A:
[drawing 597] (Example 1 in WO 2010/065275, published Jun. 10, 2010). The test compounds' activities were then expressed as a percentage of Compound A, the standard in every experiment. This percent activation was calculated either in the presence or absence of DETA-NO which was then plotted. IP and maximum fold induction was derived using ADA analysis software for 4P fit.
The compounds in the Examples of the instant invention had inflection points (IP) less than or equal to 10 μM and more particularly less than or equal to about 1 μM.

Emax [%]	EC50 [nM]	% Act. [%]	Structure (SMILES)
69	58		CC1(c2ccc(Cl)cc2)C(=O)Nc2nc(-c3cn4ccnc4cn3)nc(N3CCC(C(F)(F)F)C3)c21 (racemic) [Example 279A, 5-(4-chlorophenyl)-2-(imidazo[1,2-a]pyrazin-6-yl)-5-methyl-4-(3-(trifluoromethyl)pyrrolidin-1-yl)-5H-pyrrolo[2,3-d]pyrimidin-6(7H)-one]
141	46		CC1(C(=O)NC2CC2)C(=O)Nc2nc(-c3cn4ccnc4c(Cc4cccc(F)c4)n3)nc(N)c21 (single isomer, unassigned) [Example 31A, 4-Amino-N-cyclopropyl-2-(8-(3-fluorobenzyl)imidazo[1,2-a]pyrazin-6-yl)-5-methyl-6-oxo-6,7-dihydro-5H-pyrrolo[2,3-d]pyrimidine-5-carboxamide]
	304	151	CC1(C(=O)NC2CC2)C(=O)Nc2nc(-c3cn4ccnc4c(Cc4cccc(F)c4)n3)nc(N)c21 (single isomer, unassigned) [Example 36A, 4-amino-N-cyclopropyl-2-(8-(3-fluorobenzyl)imidazo[1,2-a]pyrazin-6-yl)-5-methyl-6-oxo-6,7-dihydro-5H-pyrrolo[2,3-d]pyrimidine-5-carboxamide]
	959	154	CC1(C(=O)NC2CC2)C(=O)Nc2nc(-c3cn4ccnc4c(Cc4cccc(F)c4)n3)nc(N)c21 (single isomer, unassigned) [Example 36B, 4-amino-N-cyclopropyl-2-(8-(3-fluorobenzyl)imidazo[1,2-a]pyrazin-6-yl)-5-methyl-6-oxo-6,7-dihydro-5H-pyrrolo[2,3-d]pyrimidine-5-carboxamide]
	61	124	Nc1nc(-c2cn3ccnc3c(Cc3cccc(F)c3)n2)nc2c1C(C(=O)NC1CC1)(C1CC1)C(=O)N2 (single isomer, unassigned) [Example 38A, 4-amino-N,5-dicyclopropyl-2-(8-(3-fluorobenzyl)imidazo[1,2-a]pyrazin-6-yl)-6-oxo-6,7-dihydro-5H-pyrrolo[2,3-d]pyrimidine-5-carboxamide]
	53	138	Nc1nc(-c2cn3ccnc3c(Cc3ccccc3)n2)nc2c1C(C(=O)NC1CC1)(C1CC1)C(=O)N2 (single isomer, unassigned) [Example 40A, 4-amino-2-(8-benzylimidazo[1,2-a]pyrazin-6-yl)-N,5-dicyclopropyl-6-oxo-6,7-dihydro-5H-pyrrolo[2,3-d]pyrimidine-5-carboxamide]
127	27		Nc1nc(-c2cn3ccnc3c(Cc3ccccc3)n2)nc2c1C(C(=O)NC1CC1)(C1CC1)C(=O)N2 (single isomer, unassigned) [Example 40B, 4-amino-2-(8-benzylimidazo[1,2-a]pyrazin-6-yl)-N,5-dicyclopropyl-6-oxo-6,7-dihydro-5H-pyrrolo[2,3-d]pyrimidine-5-carboxamide]
75	217		Nc1nc(-c2cn3cc(C(F)(F)F)nc3c(Cc3ccccc3F)n2)nc2c1C(C(=O)NC1CC1)(C1CC1)C(=O)N2 (single isomer, unassigned) [Example 45B, 4-amino-N,5-dicyclopropyl-2-(8-(2-fluorobenzyl)-2-(trifluoromethyl)imidazo[1,2-a]pyrazin-6-yl)-6-oxo-6,7-dihydro-5H-pyrrolo[2,3-d]pyrimidine-5-carboxamide]
	450	83	Nc1nc(-c2cn3ccnc3c(CCC(F)(F)C(F)(F)F)n2)nc2c1C(C(=O)NC1CC1)(C1CC1)C(=O)N2 (single isomer, unassigned) [Example 61B, 4-amino-N,5-dicyclopropyl-6-oxo-2-(8-(3,3,4,4,4-pentafluorobutyl)imidazo[1,2-a]pyrazin-6-yl)-6,7-dihydro-5H-pyrrolo[2,3-d]pyrimidine-5-carboxamide]
	90	151	CCC1(C2CC2)C(=O)Nc2nc(-c3cn4ccnc4c(Cc4ccccc4)n3)nc(N)c21 (single isomer, unassigned) [Example 77A, 4-amino-2-(8-benzylimidazo[1,2-a]pyrazin-6-yl)-5-cyclopropyl-5-ethyl-5H-pyrrolo[2,3-d]pyrimidin-6(7H)-one]
	30	176	CCC1(C2CC2)C(=O)Nc2nc(-c3cn4ccnc4c(Cc4ccccc4)n3)nc(N)c21 (single isomer, unassigned) [Example 77B, 4-amino-2-(8-benzylimidazo[1,2-a]pyrazin-6-yl)-5-cyclopropyl-5-ethyl-5H-pyrrolo[2,3-d]pyrimidin-6(7H)-one]
88	253		CC(C)C1(C)C(=O)Nc2nc(-c3cn4ccnc4c(Cc4ccccc4)n3)nc(N)c21 (single isomer, unassigned) [Example 80B, 4-amino-2-(8-benzylimidazo[1,2-a]pyrazin-6-yl)-5-isopropyl-5-methyl-5H-pyrrolo[2,3-d]pyrimidin-6(7H)-one]
114	473		CC1(C2CC2)C(=O)Nc2nc(-c3cn4ccnc4c(Cc4ccccc4)n3)nc(N)c21 (single isomer, unassigned) [Example 82B, 4-amino-2-(8-benzylimidazo[1,2-a]pyrazin-6-yl)-5-cyclopropyl-5-methyl-5H-pyrrolo[2,3-d]pyrimidin-6(7H)-one]
100	180		CCC1(C)C(=O)Nc2nc(-c3cn4ccnc4c(Cc4ccccc4)n3)nc(N)c21 (single isomer, unassigned) [Example 84B, 4-amino-2-(8-benzylimidazo[1,2-a]pyrazin-6-yl)-5-ethyl-5-methyl-5H-pyrrolo[2,3-d]pyrimidin-6(7H)-one]
	140	129	CC1(c2ccc(F)cc2)C(=O)Nc2nc(-c3cn4ccnc4c(Cc4cccc(F)c4)n3)nc(N)c21 (single isomer, unassigned) [Example 90B, 4-amino-2-(8-(3-fluorobenzyl)imidazo[1,2-a]pyrazin-6-yl)-5-(4-fluorophenyl)-5-methyl-5H-pyrrolo[2,3-d]pyrimidin-6(7H)-one]
